Results reported in patent US20250361217A1, “FATTY ACID COMPOUNDS” (University of Pittsburgh - Of the Commonwealth System of …, priority 2022, published 2025).

Experiments:
ACC = experiment: Thermal shift assay of liver proteins, ACC; assay type: binding, mice
Description: The liver samples (50 mg) were homogenized and vortexed in ice-cold RIPA buffer containing phosphatase (Fisher Scientific, #PIA32957) and protease (Fisher Scientific, #PIA32953) inhibitor cocktails. Protein concentration was determined using a […] (Pierce). Protein lysates were mixed with LDS Sample Buffer (1:4) and heated for 2 min at 95° C. The lysates were then loaded and electrophoresed on a 10% Tris-Glycine eXtended (BioRad, Criterion #5671034). The proteins were electrophoretically transferred to a PVDF membrane (BioRad, #1620177), and the transfer was confirmed by staining the membrane with 0.1% Ponceau S solution (Sigma-Aldrich, #6226-79-5). The membrane was then blocked for 90 min at RT with 5% nonfat dry milk (LabScientific) or 5% BSA (MilliporeSigma) in TBS-T (tris buffered saline+0.1% Tween 20 [Thermo Fisher Scientific]). […] Quantitative densitometric analysis was performed using Image Lab software (Bio-Rad).
Thermal Shift Assay Proteins were extracted from the liver powder (50 mg) with 1 mL of phosphate-buffered saline (PBS—Gibco, Paisley, UK) containing phosphatase (Fisher Scientific, #PIA32957) and protease (Fisher Scientific, #PIA32953) inhibitors. […] The Supernatants were transferred to new tubes and analyzed by western blot as described above.

liver gene expression = experiment: RT-qPCR of liver genes; assay type: in vivo, mice; details: liver RT-qPCR vs HFD+veh
Description: Total RNA was extracted using 50 mg of frozen liver powder. The powder was homogenized in 1 mL of TRIzol solution (Invitrogen, #15-596-026) and 200 μl of chloroform, shaken vigorously for 15 seconds, and incubate at RT for 2-3 min. Lysates were centrifuged at 12000 g for 15 min at 4° C. The upper aqueous phase was transferred in a new ice-cold tube and diluted with 500 μl of ice-cold isopropyl alcohol and incubate at RT for 10 min. Tubes were centrifuged at 12000 g for 10 min at 4° C. The RNA pellet was washed twice using ice-cold 75% ethanol and centrifugation for 5 min at 7500 g at 4° C. The RNA pellet was dissolved in RNase-free H2O and the concentration was measured using Nanodrop 2000 (Thermo Fisher Scientific). […] The RNA sample (1 μg) was subjected to reverse transcription with the iScript cDNA synthesis kit. The TaqMan gene expression assays-on-demand system (Applied Biosystems, Foster City, CA, USA) was used for gene expression assessment by quantitative PCR (qPCR) using GAPDH as housekeeping gene using the comparative Ct method.

[1] = system: HFD model in C57BL/6J mice; experiment: Glucose tolerance test (GTT) in HFD NAFLD mouse model; assay type: in vivo
Description: Male C57BL/6J mice were purchased from Jackson Laboratory (Bar Harbor, ME, USA). Mice were acclimated for a week before being randomized to receive either a low-fat diet (LFD) or a high-fat diet (HFD) purchased from Research Diets (New Brunswick, NJ, USA). Obesity was induced by the HFD (D12492, with 60% of the adjusted calories derived from fat) for 16 weeks beginning at age of 8 weeks. Age-matched controls were maintained on a LFD (D12450J, matching the sucrose level of D12492). While maintaining the diet, mice under HFD were divided into 4 groups (n=8 per group) and were treated every 2 days by oral gavage for 7 weeks with 100 μl of 11D3 (50 mg/kg), 11U3 (50 mg/kg), or 11U3-2M (50 mg/kg) formulated in a solution of 2:1 of polyethylene glycol (Fisher Scientific, PEG400 #p167-1) and saline, containing 1.5% of octanoic acid (TCI, #00027). Control groups received 100 μl of PEG400/saline/octanoic acid as the vehicle (Veh). LFD mice were divided into 2 groups (n=8 per group) and treated with veh or 11D3 (50 mg/kg) to detect any effect of natural FuFA in LFD. Mice were grouped to start at the same weight mean before starting the treatment. During and before gavage treatment, mice were fed ad libitum and given free access to water. Food intake, water consumption, and mouse weight were monitored every week. At 20 weeks (4 weeks of treatment), a glucose tolerance test (GTT) was performed on all cohorts. After 2 weeks of recovery (22 weeks), a whole-body composition was performed using EchoMRI™-100H. At the end of the 23 weeks study, mice were euthanized with isoflurane followed by laparotomy. The blood was collected, and mice were perfused using 0.9% NaCl. Organs were harvested and snap-frozen in liquid nitrogen gas and stored at −80° C. for further analysis. The Cellerusher (Cell Crusher, Schull, Ireland) tissue pulverizer was used to reduce frozen tissues to a fine, easily recoverable powder using dry ice. For immunohistochemistry, the same liver lobe for every mouse was fixed in Formalin 10% (Fisher Chemical, #SF98-4) for 48h, followed by 75% ethanol baths before paraffin embedding.
GTT was performed on mice fasted for 5h. Mice were injected intraperitoneally with filter-sterilized 1.5 g/kg glucose in 0.9% NaCl. Blood glucose levels were measured using a hand-held glucometer (Accu-Chek Aviva, Roche Diagnostics, Indianapolis, IN, USA) at 0, 20, 40, 60, 90, and 120 min.

## CCCc1ccc(CCCCCCCCCC(C)(C)C(=O)O)o1 [11U3-2M, 2,2-Dimethyl-11-(5-propylfuran-2-yl)undecanoic acid]
ACC; full cohorts, HFD+11U3-2M, higher temperature (52, 53.5, 55° C.)
  ACC thermal stability: greatly increased
ACC; one mouse per group, 52, 53.5 and 55° C.
  ACC thermal stability compared to veh: higher stability
Liver gene expression
  LncRNA GM10804 decreased: 3.3 fold
  LncRNA GM15441 increased: 320 fold
  PDK4 increase: 9.3 fold
[1]; 50 mg/kg gavage every 2 days, after 4 weeks of treatment
  blood glucose clearance measured by GTT compared to veh: significantly improved
[1]; 50 mg/kg, 4 weeks
  decrease in glucose area under the curve from 0 to 120 min vs veh: 24%
  fasting blood glucose: trend in decreased glucose
[1]; 20 min time point, 50 mg/kg, 4 weeks
  less glucose in GTT vs veh: 18%
[1]; 40 min time point, 50 mg/kg, 4 weeks
  less glucose in GTT vs veh: 26%
[1]; 60 min time point, 50 mg/kg, 4 weeks
  less glucose in GTT vs veh: 22%
